Experimental data reported in ChEMBL document CHEMBL4196012 (Eur J Med Chem, 2018).
Converted amounts (≈) assume the structure as drawn.

Assays:
[1] = tested on: Yersinia pseudotuberculosis; test: Antibacterial activity against Yersinia pseudotuberculosis ATCC 911 after 18 to 24 hrs by double microdilution method; assay type: functional
Enterococcus faecalis = test: Antibacterial activity against Enterococcus faecalis ATCC 29212 after 18 to 24 hrs by double microdilution method; assay type: functional
Staphylococcus aureus [2] = test: Antibacterial activity against Staphylococcus aureus ATCC 25923 after 18 to 24 hrs by double microdilution method; assay type: functional
Bacillus cereus = test: Antibacterial activity against Bacillus cereus 709 Roma after 18 to 24 hrs by double microdilution method; assay type: functional
[3] = tested on: Mycolicibacterium smegmatis; test: Antibacterial activity against Mycobacterium smegmatis ATCC 607 after 48 to 72 hrs by double microdilution method; assay type: functional
Escherichia coli [4] = test: Antibacterial activity against Escherichia coli ATCC 35218 after 18 to 24 hrs by double microdilution method; assay type: functional
Pseudomonas aeruginosa [5] = test: Antibacterial activity against Pseudomonas aeruginosa ATCC 10145 after 18 to 24 hrs by double microdilution method; assay type: functional
Escherichia coli [6] = test: Antibacterial activity against Escherichia coli ATCC […] by CLSI agar dilution method; assay type: functional
[7] = tested on: Staphylococcus epidermidis; test: Antibacterial activity against Staphylococcus epidermidis ATCC 12228 by CLSI agar dilution method; assay type: functional
[8] = tested on: Staphylococcus epidermidis; test: Antibacterial activity against methicillin-sensitive Staphylococcus epidermidis by CLSI agar dilution method; assay type: functional
Staphylococcus aureus [9] = test: Antibacterial activity against Staphylococcus aureus ATCC 29213 by CLSI agar dilution method; assay type: functional
Staphylococcus aureus [10] = test: Antibacterial activity against methicillin-sensitive Staphylococcus aureus by CLSI agar dilution method; assay type: functional
Klebsiella pneumoniae = test: Antibacterial activity against Klebsiella pneumoniae ATCC […] by CLSI agar dilution method; assay type: functional
Escherichia coli [11] = test: Antibacterial activity against Escherichia coli ATCC 25922 after 18 to 24 hrs by double microdilution method; assay type: functional
Pseudomonas aeruginosa [12] = test: Antibacterial activity against Pseudomonas aeruginosa ATCC 43288 after 18 to 24 hrs by double microdilution method; assay type: functional
[13] = Partition coefficient, log P of the compound; assay type: physicochemical; settings: octanol/water
Bacillus subtilis = test: Antibacterial activity against Bacillus subtilis NCDC 71 after overnight incubation by single disc method; assay type: functional
Escherichia coli [14] = test: Antibacterial activity against Escherichia coli NCDC 134 after overnight incubation by single disc method; assay type: functional
Pseudomonas aeruginosa [15] = test: Antibacterial activity against Pseudomonas aeruginosa NCDC105 after overnight incubation by single disc method; assay type: functional
Paenibacillus polymyxa = test: Antibacterial activity against Paenibacillus polymyxa NCDC 64 after overnight incubation by single disc method; assay type: functional
Staphylococcus aureus [16] = test: Antibacterial activity against Staphylococcus aureus NCDC 110 after overnight incubation by single disc method; assay type: functional

Compound O=C(O)c1cn(C2CC2)c2cc(N3CCN(Cn4nc(CNc5ccc(N6CCN(c7ccc(F)cc7)CC6)c(F)c5)n(-c5ccccc5)c4=S)CC3)c(F)cc2c1=O has an MIC [1] of under 0.24 µg/mL, an MIC (Enterococcus faecalis) of under 0.24 µg/mL and an MIC (Staphylococcus aureus [2]) of under 0.24 µg/mL. It also gave an MIC (Bacillus cereus) of under 0.24 µg/mL, an MIC [3] of under 0.24 µg/mL and an MIC (Escherichia coli [4]) of under 0.24 µg/mL. It also gave an MIC (Pseudomonas aeruginosa [5]) of under 0.24 µg/mL.

Work on COc1ccccc1N1CCN(Cc2nn(CN3CCN(c4cc5c(cc4F)c(=O)c(C(=O)O)cn5C4CC4)CC3)c(=S)n2-c2ccccc2)CC1 yielded an MIC [1] of under 0.24 µg/mL, an MIC (Enterococcus faecalis) of under 0.24 µg/mL and an MIC (Staphylococcus aureus [2]) of under 0.24 µg/mL. The MIC (Bacillus cereus) was under 0.24 µg/mL, the MIC [3] was under 0.24 µg/mL and the MIC (Escherichia coli [4]) was under 0.24 µg/mL. For the same compound, the MIC (Pseudomonas aeruginosa [5]) was under 0.24 µg/mL.

In the case of O=C(O)c1cn(C2CC2)c2cc(N3CCN(CC(O)Cn4cc([N+](=O)[O-])nc4Cl)CC3)c(F)cc2c1=O (stereo unspecified), the MIC (Escherichia coli [6]) is reported as 2 to 32 µg/mL (≈ 3.74 to 59.8 µM), the MIC [7] is reported as 2 to 32 µg/mL (≈ 3.74 to 59.8 µM) and the MIC [8] is reported as 2 to 32 µg/mL (≈ 3.74 to 59.8 µM). The MIC (Staphylococcus aureus [9]) was 2 to 32 µg/mL (≈ 3.74 to 59.8 µM), the MIC (Staphylococcus aureus [10]) was 2 to 32 µg/mL (≈ 3.74 to 59.8 µM) and the MIC (Klebsiella pneumoniae) was 2 to 32 µg/mL (≈ 3.74 to 59.8 µM).

Work on CC1(C)S[C@@H]2[C@H](NC(=O)[C@H](N)c3ccccc3)C(=O)N2[C@H]1C(=O)O [AMPICILLIN] yielded an MIC (Escherichia coli [11]) of 10 to 128 µg/mL (≈ 28.6 to 366 µM), an MIC [1] of 10 to 128 µg/mL (≈ 28.6 to 366 µM) and an MIC (Pseudomonas aeruginosa [12]) of 10 to 128 µg/mL (≈ 28.6 to 366 µM). The MIC (Enterococcus faecalis) was 10 to 128 µg/mL (≈ 28.6 to 366 µM), the MIC (Staphylococcus aureus [2]) was 10 to 128 µg/mL (≈ 28.6 to 366 µM) and the MIC (Bacillus cereus) was 10 to 128 µg/mL (≈ 28.6 to 366 µM). The MIC [3] was 10 to 128 µg/mL (≈ 28.6 to 366 µM), the MIC (Escherichia coli [4]) was 3.9 to 250 µg/mL (≈ 11.2 to 715 µM) and the MIC (Pseudomonas aeruginosa [5]) was 3.9 to 250 µg/mL (≈ 11.2 to 715 µM).

With CCOC(=O)c1cn(C2CC2)c2cc(N3CCNCC3)c(F)cc2c1=O [CIPROFLOXACIN ETHYL ESTER] the logP [13] was -0.065.

In the case of COc1c(N2CCNC(C)C2)c(F)cc2c(=O)c(C(=O)O)cn(C3CC3)c12 (stereo unspecified) [GATIFLOXACIN], the MIC (Escherichia coli [6]) is reported as 0.06 to 16 µg/mL (≈ 0.16 to 42.6 µM), the MIC [7] is reported as 0.06 to 16 µg/mL (≈ 0.16 to 42.6 µM) and the MIC [8] is reported as 0.06 to 16 µg/mL (≈ 0.16 to 42.6 µM). The MIC (Staphylococcus aureus [9]) was 0.06 to 16 µg/mL (≈ 0.16 to 42.6 µM), the MIC (Staphylococcus aureus [10]) was 0.06 to 16 µg/mL (≈ 0.16 to 42.6 µM) and the MIC (Klebsiella pneumoniae) was 0.06 to 16 µg/mL (≈ 0.16 to 42.6 µM). It also gave an MIC (Bacillus subtilis) of 5 to 100 µg/mL (≈ 13.3 to 266 µM), an MIC (Escherichia coli [14]) of 5 to 100 µg/mL (≈ 13.3 to 266 µM) and an MIC (Pseudomonas aeruginosa [15]) of 5 to 100 µg/mL (≈ 13.3 to 266 µM). For the same compound, the MIC (Paenibacillus polymyxa) was 5 to 100 µg/mL (≈ 13.3 to 266 µM) and the MIC (Staphylococcus aureus [16]) was 5 to 100 µg/mL (≈ 13.3 to 266 µM).
